Laboratory results published in ChEMBL document CHEMBL3044799, “Biological activity of the succinate dehydrogenase inhibitor fluopyram against Botrytis cinerea and fungal baseline sensitivity” (Pest Manag Sci, 2012).
Values after ≈ are worked out from the molar mass of the structure shown. Active and inactive are the calls of the source. No cut-off for these calls is given here.

Legend:
[1] = test system: Botrytis cinerea; test: Curative antifungal activity against Botryotinia fuckeliana inoculated in strawberry fruit assessed as disease severity measuring lesion diameter at 50 ug AI/ml applied 96 hr post-inoculation; assay type: functional
[2] = test system: Botrytis cinerea; test: Antifungal activity against Botryotinia fuckeliana grown on YBA agar assessed as inhibition of spore germination at 1 ug/ml after 10 days; assay type: functional, organism-based
[3] = test system: Botrytis cinerea; test: Protective antifungal activity against Botryotinia fuckeliana inoculated in fungicide-applied strawberry fruit assessed as disease control efficacy at 10 ug AI/ml applied 96 hr prior-inoculation relative to control; assay type: functional
[4] = test system: Botrytis cinerea; test: Curative antifungal activity against Botryotinia fuckeliana inoculated in strawberry fruit assessed as disease severity measuring lesion diameter at 100 ug AI/ml applied 96 hr post-inoculation; assay type: functional
[5] = test system: Botrytis cinerea; test: Protective antifungal activity against Botryotinia fuckeliana inoculated in fungicide-applied strawberry fruit assessed as disease severity measuring lesion diameter at 10 ug AI/ml applied 48 hr prior inoculation; assay type: functional
[6] = test system: Botrytis cinerea; test: Antifungal activity against Botryotinia fuckeliana grown on succinate medium assessed as inhibition of mycelial growth at 10 ug/ml after 10 days; assay type: functional, organism-based
[7] = test system: Botrytis cinerea; test: Protective antifungal activity against Botryotinia fuckeliana inoculated in fungicide-applied strawberry fruit assessed as disease control efficacy at 10 ug AI/ml applied 48 hr prior inoculation relative to control; assay type: functional
[8] = test system: Botrytis cinerea; test: Antifungal activity against Botryotinia fuckeliana obtained from grape isolate assessed as inhibition of spore germ tube growth; assay type: functional, organism-based
[9] = test system: Botrytis cinerea; test: Curative antifungal activity against Botryotinia fuckeliana inoculated in strawberry fruit assessed as disease control efficacy at 50 ug AI/ml applied 24 hr post-inoculation relative to control; assay type: functional
[10] = test system: Botrytis cinerea; test: Curative antifungal activity against Botryotinia fuckeliana inoculated in strawberry fruit assessed as disease severity measuring lesion diameter at 100 ug AI/ml applied 24 hr post-inoculation; assay type: functional
[11] = test system: Botrytis cinerea; test: Curative antifungal activity against Botryotinia fuckeliana inoculated in strawberry fruit assessed as disease control efficacy at 10 ug AI/ml applied 48 hr post-inoculation relative to control; assay type: functional
[12] = test system: Botrytis cinerea; test: Protective antifungal activity against Botryotinia fuckeliana inoculated in fungicide-applied strawberry fruit assessed as disease control efficacy at 100 ug AI/ml applied 96 hr prior-inoculation relative to control; assay type: functional
[13] = test system: Botrytis cinerea; test: Curative antifungal activity against Botryotinia fuckeliana inoculated in strawberry fruit assessed as disease control efficacy at 50 ug AI/ml applied 48 hr post-inoculation relative to control; assay type: functional
[14] = test system: Botrytis cinerea; test: Protective antifungal activity against Botryotinia fuckeliana inoculated in fungicide-applied strawberry fruit assessed as disease severity measuring lesion diameter at 1 ug AI/ml applied 24 hr prior inoculation; assay type: functional
[15] = test system: Botrytis cinerea; test: Curative antifungal activity against Botryotinia fuckeliana inoculated in strawberry fruit assessed as disease control efficacy at 1 ug AI/ml applied 48 hr post-inoculation relative to control; assay type: functional
[16] = test system: Botrytis cinerea; test: Protective antifungal activity against Botryotinia fuckeliana inoculated in fungicide-applied strawberry fruit assessed as disease severity measuring lesion diameter at 100 ug AI/ml applied 48 hr prior inoculation; assay type: functional
[17] = test system: Botrytis cinerea; test: Protective antifungal activity against Botryotinia fuckeliana inoculated in fungicide-applied strawberry fruit assessed as disease severity measuring lesion diameter at 100 ug AI/ml applied 24 hr prior inoculation; assay type: functional
[18] = test system: Botrytis cinerea; test: Protective antifungal activity against Botryotinia fuckeliana inoculated in fungicide-applied strawberry fruit assessed as disease severity measuring lesion diameter at 50 ug AI/ml applied 96 hr prior-inoculation; assay type: functional
[19] = test system: Botrytis cinerea; test: Curative antifungal activity against Botryotinia fuckeliana inoculated in strawberry fruit assessed as disease severity measuring lesion diameter at 10 ug AI/ml applied 48 hr post-inoculation; assay type: functional
[20] = test system: Botrytis cinerea; test: Curative antifungal activity against Botryotinia fuckeliana inoculated in strawberry fruit assessed as disease severity measuring lesion diameter at 10 ug AI/ml applied 96 hr post-inoculation; assay type: functional
[21] = test system: Botrytis cinerea; test: Curative antifungal activity against Botryotinia fuckeliana inoculated in strawberry fruit assessed as disease control efficacy at 1 ug AI/ml applied 96 hr post-inoculation relative to control; assay type: functional
[22] = test system: Botrytis cinerea; test: Antifungal activity against Botryotinia fuckeliana obtained from kiwi fruit isolate assessed as inhibition of spore germ tube growth; assay type: functional, organism-based
[23] = test system: Botrytis cinerea; test: Antifungal activity against Botryotinia fuckeliana obtained from tomato isolate assessed as inhibition of spore germ tube growth; assay type: functional, organism-based
[24] = test system: Botrytis cinerea; test: Protective antifungal activity against Botryotinia fuckeliana inoculated in fungicide-applied strawberry fruit assessed as disease control efficacy at 50 ug AI/ml applied 24 hr prior inoculation relative to control; assay type: functional

O=C(NCCc1ncc(C(F)(F)F)cc1Cl)c1ccccc1C(F)(F)F [FLUOPYRAM]
Activity [1]: 10.3 mm | growth inhibition (GI) [2]: Active | Efficacy [3]: 66.3% | Activity [4]: 7 mm | Activity [5]: 5.5 mm | growth inhibition (GI) [6]: inactive | Efficacy [7]: 70.8% | EC50 [8]: 0.13 µg/mL (≈ 0.328 µM) | Efficacy [9]: 77.3% | Activity [10]: 3.9 mm | Efficacy [11]: 81.2% | Efficacy [12]: 93.9% | Efficacy [13]: 82.9% | Activity [14]: 6.3 mm | Efficacy [15]: 63.3% | Activity [16]: 1.1 mm | Activity [17]: 0 mm | Activity [18]: 3.9 mm | Activity [19]: 3.5 mm | Activity [20]: 11.1 mm | Efficacy [21]: 37.2% | EC50 [22]: 0.1 µg/mL (≈ 0.252 µM) | EC50 [23]: 0.11 µg/mL (≈ 0.277 µM) | Efficacy [24]: 93.9%
